Molecules are shown by their SMILES.

We go through 34 compounds from a melting point compilation (Tetko et al.; mined from patent text by program, amines drawn as free bases though some values may be those of a salt).

With `Cc1c(C)c2c(c(C)c1O)CCC(C)(CCOC(=O)C(C)c1ccc(-c3ccccc3)c(F)c1)O2` (centres undefined), the melting point – broadly, the temperature, or range, at which the solid turns liquid – was in the range of 85 to 87 °C.

In the case of `O=c1ccn(-c2cccc(C(F)(F)F)c2)nc1-c1ccnn1CC1CC1`, the melting point lay in the range of 155 to 157 °C.

For `CC(C)NCC(O)COc1ccc2c(c1)C(=O)OC2` (centres undefined), the melting point lay within 95 to 97 °C.

`ClCCOc1cc(-c2cccs2)n[nH]1` displayed a melting point of 134 to 138 °C.

Consider `Nc1ccc2c(=O)n3c(nc2c1)C(=Cc1ccc(O)c(O)c1)CC3`, for which the melting point lay within 263 to 265 °C.

Compound `CN1CCCC1=NCCOS(=O)(=O)Oc1c[nH]c2ccccc12` came in with a melting point of 154 to 158 °C.

Compound `O=C(C=Cc1ccc(Cl)c(C(F)(F)F)c1)NN1CC(=O)NC1=O` came in with a melting point of 270 to 273 °C.

On to `C=CCOC(=O)Nc1nsc(N)n1`, for which the melting point lay within 159 to 161 °C.

In the case of `Cc1c(Br)nc(Nc2ccc(C#N)cc2)c(=O)n1C`, the melting point was 254 to 255 °C.

On to `c1ccc2cc(Cn3ccnc3)ccc2c1`, for which the melting point lay within 87 to 88 °C.

For `O=C(N[C@H](Cc1cccc(OC(F)(F)C(F)F)c1)[C@@H](O)c1ccc(CO)cc1)c1cccc2c1C=CCCC2` (racemic), the melting point lay within 151 to 152 °C.

Regarding `COc1ccc(CSc2ccc(OCC(=O)O)c3c2CCC3)cc1OCc1ccc(C(F)(F)F)cc1`, the melting point fell in the range of 150 to 151 °C.

In the case of `COc1ccnc(CSc2nc3cc(Cl)c(Cl)cc3[nH]2)c1C`, the melting point fell in the range of 254 to 256 °C.

As to `CCOC(=O)CC(=O)NCc1ccccc1`, the melting point fell in the range of 50 to 52 °C.

`O=C1Nc2ccccc2N(C(=O)CN2CCCCC2CN2CCCCC2)c2cscc21` (centres undefined) registered a melting point of 190 to 195 °C.

As to `CCOC(=O)c1ccc(NC(=O)C=C(c2ccccc2)c2ccc(C)cc2)cc1`, the melting point lay in the range of 122 to 124 °C.

Turning to `COc1ccc(-c2cc(CN3CCN(CCO)CC3)c(=O)n(CC=Cc3ccc(Cl)cc3)n2)cc1F`, the melting point is 133 to 135 °C.

Regarding `CONC1=NC(=O)C(=Cc2cccc(-c3cc(F)c(O)c(C45CC6CC(CC(C6)C4)C5)c3)c2)S1`, the melting point lay in the range of 286 to 288 °C.

Consider `COC(=O)c1ccc(C2C(C(=O)c3ccc(C)cc3)=C(O)C(=O)N2c2ncc(S(=O)(=O)c3ccc([N+](=O)[O-])cc3)s2)cc1` (centres undefined), for which the melting point was 249 to 251 °C.

`CC(C)(CCCSCSCCCC(C)(C)C(=O)O)C(=O)O` displayed a melting point of 72 to 72.5 °C.

`CCNC(=O)N1C(=O)Cc2cc(Cl)ccc21` gave a melting point of 121 to 122 °C.

In turn, `COCCOc1ccc(CCCOC(=O)NCC2CC2)c(Oc2ncc(C(F)(F)F)cc2Cl)c1` gave a melting point of 87.8 to 87.9 °C.

In turn, `OC(COc1ccccc1Cl)(Cn1cncn1)Cn1cncn1` registered a melting point of 95 °C.

As for `COC(CNC(=O)N(N=Cc1ccccc1)c1cc(Cl)c(Cc2ccc(C(=O)c3ccc(Cl)cc3)cc2)c(Cl)c1)OC`, the melting point was 158 to 160 °C.

The compound `CN(C)CCNc1ccc(-c2nn(CC(=O)O)c3ncccc23)cc1` came in with a melting point of 240 to 242 °C.

The compound `FC(F)(F)Oc1ccc(Nc2nc(-c3ccccc3)cc(N3CCOCC3)n2)cc1` displayed a melting point of 260 to 262 °C.

As for `Cc1ccc(C(=O)NCN2CCN(c3ncccc3C#N)CC2)cc1`, the melting point was in the range of 134 to 136 °C.

Compound `O=c1cc(CO)n(Cc2ccccc2)cc1OCc1ccccc1` displayed a melting point of 146 to 147 °C.

As for `CCCN(CCC)c1ccc(CCC(=O)O)c2c1CCCN2C(=O)OC(C)(C)C`, the melting point was in the range of 84 to 86 °C.

On to `Cc1ccccc1NS(=O)(=O)c1cc([N+](=O)[O-])ccc1C`, for which the melting point was 171 to 173 °C.

`Cn1nc(-c2c(F)cccc2Cl)nc1C(C)(O)c1ccc(Cl)cc1` (centres undefined) returned a melting point of 198 to 200 °C.

Compound `COc1ccc(C(=O)N[C@H]2CCN(C)C[C@H]2c2ccccc2)cc1` (relative stereo) returned a melting point of 165 to 166 °C.

As for `Cn1c(C#N)ccc1CC(=O)O`, the melting point was in the range of 125 to 126 °C.

Turning to `CCOC(=O)Cn1cnc2ccccc21`, the melting point was 63 to 64 °C.
